# According to ChEMBL document CHEMBL3576820, “Discovery of benzimidazole oxazolidinediones as novel and selective nonsteroidal mineralocorticoid receptor antagonists” (ACS Med Chem Lett, 2015):
# Target: T1, Mineralocorticoid receptor (Homo sapiens, UniProt P08235)
# T1 sequence (P08235 whole entry): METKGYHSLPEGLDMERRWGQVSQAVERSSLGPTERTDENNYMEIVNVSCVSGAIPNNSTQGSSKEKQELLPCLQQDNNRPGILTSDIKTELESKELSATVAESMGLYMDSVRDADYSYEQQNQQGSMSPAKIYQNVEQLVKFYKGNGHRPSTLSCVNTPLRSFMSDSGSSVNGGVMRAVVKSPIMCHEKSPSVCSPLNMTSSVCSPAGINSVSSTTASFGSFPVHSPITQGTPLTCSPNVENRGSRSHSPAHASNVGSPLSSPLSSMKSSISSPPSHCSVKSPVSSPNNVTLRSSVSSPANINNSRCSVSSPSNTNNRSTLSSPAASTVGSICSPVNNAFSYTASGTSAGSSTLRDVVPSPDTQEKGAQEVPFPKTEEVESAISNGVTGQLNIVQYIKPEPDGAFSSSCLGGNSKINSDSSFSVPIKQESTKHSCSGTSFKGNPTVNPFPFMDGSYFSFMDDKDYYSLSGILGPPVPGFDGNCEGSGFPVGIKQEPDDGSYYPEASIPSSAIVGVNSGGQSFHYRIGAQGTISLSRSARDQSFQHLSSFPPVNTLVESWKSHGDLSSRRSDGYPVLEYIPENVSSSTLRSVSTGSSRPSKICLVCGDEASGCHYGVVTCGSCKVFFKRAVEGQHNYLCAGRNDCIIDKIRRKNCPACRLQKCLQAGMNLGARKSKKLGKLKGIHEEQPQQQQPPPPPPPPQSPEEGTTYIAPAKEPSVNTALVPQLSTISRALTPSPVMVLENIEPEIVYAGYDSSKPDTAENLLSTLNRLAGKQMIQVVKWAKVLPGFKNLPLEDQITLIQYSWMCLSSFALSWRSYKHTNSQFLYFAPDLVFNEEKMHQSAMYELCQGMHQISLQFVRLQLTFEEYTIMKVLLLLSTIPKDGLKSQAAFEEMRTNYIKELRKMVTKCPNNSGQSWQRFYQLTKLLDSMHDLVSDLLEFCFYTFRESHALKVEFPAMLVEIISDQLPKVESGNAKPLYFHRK
# Experiment: Binding affinity to mineralocorticoid receptor (unknown origin)
structure (smiles),measurement,value
C[C@H](c1ccc(F)cc1)N1C(=O)O[C@](Cc2ccccc2)(c2nc3cc(Cl)ccc3[nH]2)C1=O,Ki,2 nM
